# Data reported in patent EP1000059B1, “TRICYCLIC VASOPRESSIN AGONISTS” (Wyeth, priority 1997, dated 1999).
# Counter-ions that a name gives are not always drawn.
# How the values were obtained:
# Vasopressin V2 [1] = assay: Vasopressin V2 agonist effects of test compounds in normal conscious water-loaded rats; format: in vivo; conditions: oral dose of 10 mg/kg, urine collected for four hours, Sprague-Dawley (CD) rats; for Changes in Urinary Osmolality: osmolality changes expressed as percent of control; for Urine Volume (% decrease): percent decrease in urine volume vs. control, vehicle 20% DMSO in 2.5% preboiled corn starch
# Source text: Vasopressin V2 Agonist Effects of Test Compounds in Normal Conscious Water-Loaded Rats:
# Male or female normotensive Sprague-Dawley rats (Charles River Laboratories, Inc., Kingston, NY) of 350-500 g body weight were supplied with standard rodent diet (Purina Rodent Lab. Chow 5001) and water ad libitum. On the day of test, rats were placed individually into metabolic cages equipped with devices to separate the feces from the urine and containers for collection of urine. A test compound or a reference agent was given at an oral dose of 10 mg/kg in a volume of 10 ml/kg. The vehicle used was 20% dimethylsulfoxide (DMSO) in 2.5% preboiled corn starch. Thirty minutes after dosing the test compound, rats were gavaged with water at 30 ml/kg into the stomach using a feeding needle. During the test, rats were not provided with water or food. Urine was collected for four hours after dosing of the test compound. At the end of four hours, urine volume was measured. Urinary osmolality was determined using a Fiske One-Ten Osmometer (Fiske Associates, Norwood, MA, 02062) or an Advanced CRYOMATIC Osmometer, Model 3C2 (Advanced Instruments, Norwood, MA). Determinations of Na^+, K^+ and Cl^- ion were carried out using ion specific electrodes in a Beckman SYNCHRON EL-ISE Electrolyte System analyzer. The urinary osmolality should increase proportionally. In the screening test, two rats were used for each compound. If the difference in the urine volume of the two rats was greater than 50%, a third rat was used.
# Vasopressin V2 [2] = assay: as above; format: in vivo; conditions: Sprague-Dawley (CD) rats; for Urine Volume (% decrease): percent decrease in urine volume vs. control, dose 1 mg/kg; for Changes in Urinary Osmolality: percent of control
Compound,Changes in Urinary Osmolality (Vasopressin V2 [1]),Urine Volume (% decrease) (Vasopressin V2 [1]),further results
"Cc1ccn(-c2ccc(C(=O)N3Cc4cccnc4Nc4ccccc43)c(Cl)c2)n1 [Example 1, [2-Chloro-4-(3-methyl-pyrazol-1-yl)-phenyl]-(5,11-dihydro-pyrido [2,3-b] [1,5]benzodiazepin-6-yl)-methanone]",272% of control,80,
"Cc1ccnn1-c1ccc(C(=O)N2Cc3cccnc3Nc3ccccc32)c(Cl)c1 [Example 2, [2-Chloro-4-(5-methyl-pyrazol-1-yl)-phenyl] (5,11-dihydro-pyrido[2,3-b] [1,5]benzodiazepin-6-yl)-methanone]",288% of control,61,
"Cc1ccn(-c2ccc(C(=O)N3Cc4cccnc4Nc4ccccc43)c(Br)c2)n1 [Example 3, [2-Bromo-4-(3-methyl-pyrazol-1-yl)-phenyl]-(5,11-dihydro-pyrido[2,3-b] [1,5]benzodiazepin-6-yl)-methanone]",346% of control,85,
"Cc1ccn(-c2ccc(C(=O)N3Cc4cccnc4Nc4ccccc43)c(C(F)(F)F)c2)n1 [Example 4, (5,11-Dihydro-pyrido[2,3-b][1,5]benzodiazepin-6-yl)-[4-(3-methyl-pyrazol-1-yl)-2-trifluoromethyl-phenyl]-methanone]",339% of control,87,
"Cc1ccnn1-c1ccc(C(=O)N2Cc3cccnc3Nc3ccccc32)c(C(F)(F)F)c1 [Example 6, (5,11-Dihydro-pyrido[2,3-b][1,5]benzodiazepin-10-yl)-[4-(5-methyl-pyrazol-1-yl)-2-trifluoromethyl-phenyl]-methanone solvate with 0.09 dichloromethane and 0.13 ethyl acetate]",103% of control,25,
"O=C(c1ccc(-n2ccc(C(F)(F)F)n2)cc1C(F)(F)F)N1Cc2cccnc2Nc2ccccc21 [Example 7, (5,11-Dihydro-pyrido[2,3-b][1,5]benzodiazepin-6-yl)-[2-trifluoromethyl-4-(3-trifluoromethyl-pyrazol-1-yl)-phenyl]-methanone]",283% of control,69,
"Cc1ccn(-c2ccc(C(=O)N3Cc4cccnc4N(C)c4ccccc43)c(C(F)(F)F)c2)n1 [Example 8, (5-Methyl-5,11-dihydro-pyrido[2,3-b][1,5]benzodiazepin-10-yl)-[4-(3-methyl-pyrazol-1-yl)-2-trifluoromethyl-phenyl]methanone]",298% of control,72,
"Cc1ccn(-c2ccc(C(=O)N3Cc4cccnc4Nc4ccccc43)c(F)c2)n1 [Example 9, (5,11-Dihydro-pyrido[2,3-b][1,5]benzodiazepin-10-yl)-[2-fluoro-4-(3-methyl-pyrazol-1-yl)-phenyl]-methanone 0.19 hydrate]",372% of control,59,
"Cc1ccn(-c2cc(F)ccc2C(=O)N2Cc3cccnc3Nc3ccccc32)n1 [Example 10, (5,11-Dihydro-pyrido[2,3-b][1,5]benzodiazepin-10-yl)-[4-fluoro-2-(3-methyl-pyrazol-1-yl)-phenyl]-methanone solvate with 0.20 ethanol]",276% of control,63,
"Cc1ccn(-c2ccc(C(=O)N3Cc4cccnc4N(C)c4ccccc43)c(Cl)c2)n1 [Example 11, [2-Chloro-4-(3-methyl-pyrazol-1-yl)-phenyl]-(5-methyl-5,11-dihydro-pyrido[2,3-b][1,5]benzodiazepin-10-yl)-methanone]",375% of control,71,
"Cc1ccn(-c2ccc(C)c(C(=O)N3Cc4cccnc4Nc4ccccc43)c2)n1 [Example 12, (5,11-Dihydro-pyrido[2,3-b][1,5]benzodiazepin-10-yl)-[2-methyl-5-(3-methyl-pyrazol-1-yl)-phenyl]-methanone]",101% of control,-2,
"CC(C)(C)c1ccn(-c2ccc(C(=O)N3Cc4cccnc4Nc4ccccc43)c(C(F)(F)F)c2)n1 [Example 13, [4-(3-tert-Butyl-pyrazol-1-yl)-2-trifluoromethyl-phenyl]-(5,11-dihydro-pyrido[2,3-b][1,5]benzodiazepin-10-yl)-methanone]",106% of control,6,
"Cc1ccn(-c2ccc(C(=O)N3Cc4cccnc4Nc4ccccc43)c(C(F)(F)F)c2)n1 [Example 14, (5,11-Dihydro-pyrido[2,3-b][1,5]benzodiazepin-6-yl)-[4-(3-methyl-pyrazol-1-yl)-2-trifluoromethyl-phenyl]-methanone 1:1 salt with methanesulfonic acid solvate with 0.15 hexane]",,,Urine Volume (% decrease) (Vasopressin V2 [2]): 83 (1 mg/kg) % decrease; Changes in Urinary Osmolality (Vasopressin V2 [2]; same row's urine volume cell prints 1 mg/kg (footnote says 10 mg/kg)): 321% of control
"Cc1ccn(-c2ccc(C(=O)N3Cc4cccnc4Nc4ccccc43)c(C(F)(F)F)c2)n1 [Example 15, (5,11-Dihydro-pyrido[2,3-b][1,5]benzodiazepin-6-yl)-[4-(3-methyl-pyrazol-1-yl)-2-trifluoromethyl-phenyl]-methanone 1:1 salt with hydrochloric acid 0.10 dichloromethane solvate]",,,Urine Volume (% decrease) (Vasopressin V2 [2]; starch only): 98 (1 mg/kg) starch only % decrease; Changes in Urinary Osmolality (Vasopressin V2 [2]): 1363% of control
"Cc1ccn(-c2ccc(C(=O)N3Cc4cccnc4Oc4ccccc43)c(Cl)c2)n1 [Example 16, [2-Chloro-4-(3-methyl-pyrazol-1-yl)-phenyl]-(11H-5-oxa-4,10-diazadibenzo[a,d]cyclohepten-10-yl)-methanone]",142% of control,41,
"O=C(c1ccc(-n2ccc(C(F)(F)F)n2)cc1Cl)N1Cc2cccnc2Nc2ccccc21 [Example 17, [2-Chloro-4-(3-trifluoromethyl-pyrazol-1-yl)-phenyl]-(5,11-dihydro-pyrido[2,3-b][1,5]benzodiazepin-6-yl)-methanone]",262% of control,72,
"Cn1ccc(-c2ccc(C(=O)N3Cc4cccnc4Nc4ccccc43)c(Cl)c2)n1 [Example 18, [2-Chloro-4-(1-methyl-1-H-pyrazol-3-yl)-phenyl]-(5,11-dihydro-pyrido[2,3-b][1,5]benzodiazepin-10-yl)-methanone]",234% of control,76,
"CN1c2ccccc2N(C(=O)c2ccc(-c3ccn(C)n3)cc2Cl)Cc2cccnc21 [Example 20, [2-Chloro-4-(1-methyl-1H-pyrazol-3-yl)-phenyl]-(5-methyl-5,11-dihydro-pyrido[2,3-b][1,5]benzodiazepin-10-yl)-methanone]",89% of control,10,
"Cc1nc(-c2ccc(C(=O)N3Cc4cccnc4Nc4ccccc43)c(Cl)c2)n[nH]1 [Example 24, [2-Chloro-4-(5-methyl-1H-[1,2,4]triazol-3-yl)-phenyl]-(5,11-dihydro-pyrido[2,3-b][1,5]benzodiazepin-6-yl)-methanone]",615% of control,86,
